# Results published in the Kinase Knowledgebase extract (Sharma et al. 2016).
# Values joined by “and” are separate entries in the source; they are usually repeats but may differ in a detail not shown here. Equal values may be shown once.
# Biological target: PIK3CG (human) (UniProt P48736)
# Assay: Inhibition of PIK3CG Kinase Activity
# Chain of PIK3CG (human) (P48736 whole entry, looked up): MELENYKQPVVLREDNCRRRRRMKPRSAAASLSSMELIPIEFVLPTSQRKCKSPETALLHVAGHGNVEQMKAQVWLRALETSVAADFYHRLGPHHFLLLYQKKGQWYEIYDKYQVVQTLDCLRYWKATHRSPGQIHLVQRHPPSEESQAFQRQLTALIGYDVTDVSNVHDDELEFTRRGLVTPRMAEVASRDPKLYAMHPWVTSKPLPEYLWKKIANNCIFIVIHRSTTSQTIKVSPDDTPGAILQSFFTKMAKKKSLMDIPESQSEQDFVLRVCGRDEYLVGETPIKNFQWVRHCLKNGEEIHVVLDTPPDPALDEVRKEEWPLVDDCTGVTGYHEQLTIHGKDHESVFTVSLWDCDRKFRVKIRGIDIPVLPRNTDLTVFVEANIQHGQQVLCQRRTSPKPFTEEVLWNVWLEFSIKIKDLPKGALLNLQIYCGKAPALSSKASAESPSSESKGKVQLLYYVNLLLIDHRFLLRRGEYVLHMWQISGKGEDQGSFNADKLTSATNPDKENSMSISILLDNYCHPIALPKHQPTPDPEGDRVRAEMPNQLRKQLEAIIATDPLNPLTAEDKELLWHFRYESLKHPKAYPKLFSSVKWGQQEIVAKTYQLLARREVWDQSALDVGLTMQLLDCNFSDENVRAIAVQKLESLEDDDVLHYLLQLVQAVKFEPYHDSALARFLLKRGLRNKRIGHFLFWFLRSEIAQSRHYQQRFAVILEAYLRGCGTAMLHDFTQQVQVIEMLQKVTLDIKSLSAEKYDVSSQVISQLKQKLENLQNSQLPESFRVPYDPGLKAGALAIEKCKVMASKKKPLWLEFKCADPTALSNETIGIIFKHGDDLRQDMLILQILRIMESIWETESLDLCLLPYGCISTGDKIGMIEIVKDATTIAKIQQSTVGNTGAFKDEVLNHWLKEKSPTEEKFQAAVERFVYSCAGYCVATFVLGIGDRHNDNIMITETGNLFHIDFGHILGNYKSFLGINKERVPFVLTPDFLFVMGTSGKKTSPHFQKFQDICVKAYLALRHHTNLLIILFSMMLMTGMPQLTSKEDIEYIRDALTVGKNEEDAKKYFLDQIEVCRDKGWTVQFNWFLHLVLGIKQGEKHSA
row,SMILES,Ki
1,CCCCOCCOc1cncc(-c2cc(C)c3c(n2)CN(c2cnn(CC(F)(F)F)c2)C3=O)c1,100 to 490 nM
2,COCn1cc(N2Cc3cc(-c4cnc(OC)c(OC)c4)ccc3C2=O)cn1,< 100 nM
3,COc1cncc(-c2cc(C)c3c(n2)C(C)(C)N(c2cnn(CC#N)c2)C3=O)c1,< 100 nM
4,COCCOCCOc1cc(-c2cc(C)c3c(n2)CN(c2cnn(CC(F)(F)F)c2)C3=O)cnc1OC,< 100 nM
5,Cc1cc(-c2cncc([S+](C)[O-])c2)nc2c1C(=O)N(c1cnn(CC(F)(F)F)c1)C2(C)C (stereo not given),100 to 490 nM and < 100 nM
6,COc1cncc(-c2cc(C)c3c(n2)CN(c2cn(CC(F)(F)F)cn2)C3=O)c1,< 100 nM
7,COc1cc(-c2ccc3c(n2)CN(c2ccc(N(C)CCC4OCCO4)nc2)C3=O)cnc1OC,100 to 490 nM
8,COc1cc(-c2cc(C)c3c(n2)CN(c2ccn([C@H]4CCOC4)n2)C3=O)cnc1F,< 100 nM
9,COc1cc(-c2ccc3c(n2)CN(c2cncc(CC#N)c2)C3=O)cnc1OC,< 100 nM
10,COc1ncc(-c2cc(C)c3c(n2)CN(c2cnn(CC(F)(F)F)c2)C3=O)cc1OC(C)C,< 100 nM
11,CCNS(=O)(=O)c1cc(-c2cc(C)c3c(n2)C(C)(C)N(c2cnn(CC(F)(F)F)c2)C3=O)cnc1OC,< 100 nM
12,CCOC(=O)C(F)(F)c1ccc(N2Cc3nc(-c4cnc(OC)c(OC)c4)ccc3C2=O)cn1,100 to 490 nM
13,CO[C@@H]1c2nc(-c3cncc(OCC(F)F)c3)cc(C)c2C(=O)N1c1cnn(CC(F)(F)F)c1,< 100 nM
14,COc1cc(-c2cc(C)c3c(n2)C(C)(C)N(c2cnn(CC(F)(F)F)c2)C3=O)cnc1OC(C)C,< 100 nM
15,Cc1cc(-c2cncc(OCC(F)F)c2)nc2c1C(=O)N(c1cnn(CC(F)(F)F)c1)C2(C)C,< 100 nM
16,COc1cc(-c2cc(C)c3c(n2)C(C)N(c2cnn(CC(F)(F)F)c2)C3=O)cnc1OC(C)C (stereo not given),< 100 nM
17,COCCOc1ncc(-c2cc(C)c3c(n2)CN(c2cnn(CC#N)c2)C3=O)cc1OC,< 100 nM
18,CCNC(=O)c1cncc(-c2cc(C)c3c(n2)C(C)N(c2cnn(CC(F)(F)F)c2)C3=O)c1 (stereo not given),< 100 nM
19,CC[C@@]1(OC)c2nc(-c3cnc(OC)c(OC)c3)cc(C)c2C(=O)N1c1cnn(CC(F)(F)F)c1,< 100 nM
20,CCOc1cc(N2Cc3nc(-c4cnc(OC)c(OC)c4)cc(C)c3C2=O)ccn1,< 100 nM
21,COc1cc(-c2ccc3c(n2)CN(c2cnn(C(CO)C(F)(F)F)c2)C3=O)cnc1OC (stereo not given),< 100 nM
22,Cc1cc(-c2cncc(S(C)(=O)=O)c2)nc2c1C(=O)N(c1cnn(CC(F)(F)F)c1)C2(C)C,< 100 nM
23,COc1ncc(-c2cc(C)c3c(n2)CN(c2cnn(CC(F)(F)F)c2)C3=O)cc1OCC1CCCCO1 (stereo not given),< 100 nM
24,CCN(CC)CCn1cc(N2Cc3nc(-c4cnc(OC)c(OC)c4)ccc3C2=O)cn1,100 to 490 nM

row,SMILES,Ki
1,COc1cc(-c2cc(C)c3c(n2)CN(c2cncc(S(C)(=O)=O)c2)C3=O)cnc1OC,< 100 nM
2,COc1cc(OC)c(-c2cc(C)c3c(n2)C(C)N(c2cnn(CC(F)(F)F)c2)C3=O)cn1 (stereo not given),< 100 nM
3,COc1cc(-c2ccc3c(n2)CN(c2ccc(N4CCC(CO)CC4)nc2)C3=O)cnc1OC,< 100 nM
4,COc1cc(OC)cc(-c2cc(C)c3c(n2)CN(c2cnn(C(C)(C)C#N)c2)C3=O)c1,< 100 nM
5,Cc1cc(-c2cncc(N)c2)nc2c1C(=O)N(c1cnn(CC(F)(F)F)c1)C2,100 to 490 nM
6,COc1cc(-c2ccc3c(c2)CN(c2cnn(CC#N)c2)C3=O)cnc1OC,< 100 nM
7,COCCOc1ncc(-c2cc(C)c3c(n2)C(C)N(c2ccn(C)n2)C3=O)cc1OC (stereo not given),< 100 nM
8,CCOc1ncc(-c2cc(C)c3c(n2)CN(c2cnn(C(C)(C)C#N)c2)C3=O)cc1OC,< 100 nM
9,COc1cc(-c2ccc3c(c2)CN(c2cnn([C@@H](C)C#N)c2)C3=O)cnc1OC,< 100 nM
10,COc1cc(-c2ccc3c(n2)CN(c2cnn(CC#N)c2)C3=O)cnc1OC,< 100 nM
11,COCCOc1ncc(-c2cc(C)c3c(c2)CN(c2cnn(CC(F)(F)F)c2)C3=O)cc1OC,< 100 nM
12,Cc1cc(-c2cncc(OCC(F)(F)F)c2)nc2c1C(=O)N(c1cnn(CC(F)F)c1)C2(C)C,< 100 nM
13,CCn1cc(N2Cc3nc(-c4cnc(OC)c(OC(F)F)c4)ccc3C2=O)cn1,< 100 nM
14,COc1cncc(-c2cc(C)c3c(n2)CN(c2ccn(C)n2)C3=O)c1,< 100 nM
15,COc1ncc(-c2cc(C)c3c(n2)C(C)(C)N(c2cnn(CC(F)(F)F)c2)C3=O)cc1C(=O)NC(C)C,< 100 nM
16,COc1cc(-c2ccc3c(n2)CN(c2ccc(=O)n(CC4OCCO4)c2)C3=O)cnc1OC,100 to 490 nM
17,Cc1cc(-c2cncc(OCC(F)(F)F)c2)nc2c1C(=O)N(c1cnn(CC(F)(F)F)c1)C2(C)C,< 100 nM
18,CCn1ccnc1Cn1cc(N2Cc3nc(-c4cnc(OC)c(OC)c4)ccc3C2=O)cn1,< 100 nM
19,COCCOc1ccc(N2Cc3nc(-c4cnc(OC)c(OC)c4)ccc3C2=O)cn1,< 100 nM
20,Cc1cc(-c2cncc(C(=O)N(C)C(C)CO)c2)nc2c1C(=O)N(c1cnn(CC(F)(F)F)c1)C2(C)C (stereo not given),< 100 nM
21,CCn1ccc(N2C(=O)c3c(C)cc(-c4cncc(OC(F)F)c4)nc3C2C)n1 (stereo not given),< 100 nM
22,COc1cc(-c2cc(C)c3c(n2)C(C)(C)N(c2cnn(CC(F)(F)F)c2)C3=O)cnc1F,< 100 nM
23,COc1cc(N2Cc3nc(-c4cnc(OC)c(OC)c4)cc(C)c3C2=O)ccn1,< 100 nM
24,Cc1cc(-c2cnc3ccccc3c2)nc2c1C(=O)N(c1cn[nH]c1)C2,100 to 490 nM

row,SMILES,Ki
1,COc1cc(-c2cc(C)c3c(n2)CN(c2cnn(C[C@@H](C)O)c2)C3=O)cnc1OC,< 100 nM
2,Cc1cc(-c2cncc(CO)c2)nc2c1C(=O)N(c1cc[nH]n1)C2,100 to 490 nM
3,COc1cncc(N2Cc3nc(-c4cnc(OC)c(OC)c4)ccc3C2=O)c1,< 100 nM
4,COc1cc(-c2ccc3c(n2)C2(CCOCC2)N(c2cnn(CC(F)(F)F)c2)C3=O)cnc1OC,< 100 nM
5,COc1cc(-c2ccc3c(n2)CN(c2ccc(OCCCC(F)(F)F)nc2)C3=O)cnc1OC,< 100 nM
6,COc1cc(-c2ccc3c(n2)[C@H](C)N(c2ccn(CC(C)(C)O)n2)C3=O)cnc1OC,< 100 nM
7,CCn1ccc(N2C(=O)c3c(C)cc(-c4cncc(OC)c4)nc3C2(C)C)n1,100 to 490 nM
8,COc1cc(-c2ccc3c(c2)CN(c2cnn(CC(C)C)c2)C3=O)cnc1OC,100 to 490 nM
9,CCn1cnc(N2Cc3cc(-c4cnc(OC)c(OC)c4)ccc3C2=O)n1,< 100 nM
10,N#CCn1cc(N2Cc3cc(-c4cnc5ccccc5c4)ccc3C2=O)cn1,100 to 490 nM
11,COc1cc(-c2ccc3c(n2)[C@H](C)N(c2cnn(CC#N)c2)C3=O)cnc1OC,< 100 nM
12,COc1cc(OC)cc(-c2cc(C)c3c(n2)[C@@H](C)N(c2cnn(CC(F)(F)F)c2)C3=O)c1,< 100 nM
13,CC[C@@H]1c2nc(-c3cnc(OC)c(OC)c3)ccc2C(=O)N1c1cnn(CC(F)(F)F)c1,< 100 nM
14,COc1cncc(-c2cc(C)c3c(n2)CN(c2ccn(C[C@@H](C)F)n2)C3=O)c1,< 100 nM
15,CCC(=O)Nc1cncc(-c2cc(C)c3c(n2)C(C)(C)N(c2cnn(CC(F)(F)F)c2)C3=O)c1,100 to 490 nM
16,COc1ncc(-c2ccc3c(n2)C(C)N(c2cnn(CC(F)(F)F)c2)C3=O)cc1OC(F)F (stereo not given),< 100 nM
17,COc1cc(-c2ccc3c(n2)[C@H](C)N(c2ccn(C[C@@H](C)O)n2)C3=O)cnc1OC,< 100 nM
18,CCOc1ncc(-c2cc(C)c3c(n2)C2(CCOCC2)N(c2cnn(CC(F)(F)F)c2)C3=O)cc1OC,< 100 nM
19,COc1cc(-c2ccc3c(n2)[C@@H](C)N(c2cc[nH]n2)C3=O)cnc1OC,< 100 nM
20,COc1ncc(-c2cc(C)c3c(n2)C(C)(C)N(c2cnn(CC(F)(F)F)c2)C3=O)cc1C(=O)NCC(C)(C)O,< 100 nM
21,CCNC(=O)c1cc(-c2cc(C)c3c(n2)C(C)N(c2cnn(CC(F)(F)F)c2)C3=O)cnc1OC (stereo not given),< 100 nM
22,CCC1c2nc(-c3cnc(OC)c(OC)c3)ccc2C(=O)N1c1cnn(CC(F)(F)F)c1 (stereo not given),< 100 nM
23,Cc1cc(-c2cncc(Cl)c2)nc2c1C(=O)N(c1cnn(CC#N)c1)C2,< 100 nM
24,COc1cc(-c2ccc3c(n2)CN(c2ccn(CC(F)F)c(=O)c2)C3=O)cnc1OC,< 100 nM

row,SMILES,Ki
1,CCn1ccc(N2Cc3nc(-c4cnc(OC)c(OC)c4)ccc3C2=O)n1,< 100 nM
2,CCOc1ncc(-c2cc(C)c3c(n2)CN(c2ccon2)C3=O)cc1OC,< 100 nM
3,COc1cc(-c2cc(C)c3c(n2)CN(c2ccnc(OC(F)F)c2)C3=O)cnc1OC,< 100 nM
4,CNC(=O)c1cc(-c2cc(C)c3c(n2)C(C)(C)N(c2cnn(CC(F)(F)F)c2)C3=O)cnc1OC,100 to 490 nM
5,COc1cc(-c2ccc3c(n2)C(O)N(c2cnn(CC(F)(F)F)c2)C3=O)cnc1OC (stereo not given),< 100 nM
6,COc1cc(-c2cc(C)c3c(n2)CN(c2cnn(CC(F)(F)F)c2)C3=O)cnc1OC,< 100 nM
7,COc1cc(-c2ccc3c(c2)CN(c2cnn(CC(F)(F)F)c2)C3=O)cnc1OC,< 100 nM
8,Cc1cc(-c2cncc(OC(F)F)c2)cc2c1C(=O)N(c1cnn(CC(F)(F)F)c1)C2C (stereo not given),< 100 nM
9,Cc1cc(-c2cncc(OCC(F)F)c2)nc2c1C(=O)N(c1cnn(CC(F)(F)F)c1)C21CCOCC1,< 100 nM
10,COCCOc1ncc(-c2cc(C)c3c(n2)[C@H](C)N(c2ccn(C)n2)C3=O)cc1OC,< 100 nM
11,CC1c2nc(-c3cccc(OC(F)(F)F)c3)ccc2C(=O)N1c1cnn(CC(F)(F)F)c1 (stereo not given),< 100 nM
12,Cc1cc(-c2cncc(C(=O)N3CCC[C@@H]3C)c2)nc2c1C(=O)N(c1cnn(CC(F)(F)F)c1)C2(C)C,100 to 490 nM
13,COc1cc(-c2cc(C)c3c(n2)[C@H](C)N(c2cnn(CC(F)(F)F)c2)C3=O)cnc1C,< 100 nM
14,COc1cc(-c2cc(C)c3c(n2)CN(c2cncc(OCC(F)(F)F)c2)C3=O)cnc1OC,< 100 nM
15,COc1cc(-c2ccc3c(n2)C(C)N(c2cn(CC(F)(F)F)cn2)C3=O)cnc1OC (stereo not given),< 100 nM
16,COc1cncc(-c2cc(C)c3c(n2)[C@@H](C)N(c2ccn(C[C@H](C)O)n2)C3=O)c1,< 100 nM
17,COc1cncc(-c2cc(C)c3c(n2)C(C)N(c2cnccn2)C3=O)c1 (stereo not given),100 to 490 nM
18,CCOc1cncc(-c2cc(C)c3c(n2)C(C)N(c2cnn(CC(F)(F)F)c2)C3=O)c1 (stereo not given),< 100 nM
19,COc1ncc(-c2ccc3c(n2)CN(c2cnn(CC(F)(F)F)c2)C3=O)cc1OC(F)F,< 100 nM
20,COc1cc(-c2ccc3c(n2)CN(c2ccn(CC4COCCO4)n2)C3=O)cnc1OC (stereo not given),< 100 nM
21,COc1cncc(-c2cc(C)c3c(n2)C(C)N(c2cn(C)cn2)C3=O)c1 (stereo not given),< 100 nM
22,CCn1cc(N2C(=O)c3c(C)cc(-c4cncc(OC)c4)nc3C2(C)C)cn1,< 100 nM
23,COc1cc(-c2cc(C)c3c(n2)CN(c2cc(O)[nH]n2)C3=O)cnc1OC,< 100 nM
